Measured values taken from ChEMBL document CHEMBL3352360, “Two new spirooxindole alkaloids from rhizosphere strain Streptomyces sp. xzqh-9” (Bioorg Med Chem Lett, 2014).
Activity calls are given as the source filed them. The rule behind the calls is not given here.

What was measured:
[1] = target: L-lactate dehydrogenase (Homo sapiens) (UniProt V9HWB9); assay: Inhibition of LDH (unknown origin) at 10 uM by biochemical assay
BaF3 = assay: Inhibition of Bcr-Abl (unknown origin) expressed in BaF3 cells at 30 uM; format: cell-based; conditions: Homo sapiens
A549 = assay: Antiproliferative activity against human A549 cells assessed as inhibition of cell proliferation at 10 to 100 uM; format: functional
HepG2 = assay: Antiproliferative activity against human HepG2 cells assessed as inhibition of cell proliferation at 10 to 100 uM; format: functional
MCF7 = assay: Antiproliferative activity against human MCF7 cells assessed as inhibition of cell proliferation at 10 to 100 uM; format: functional
[2] = Retention factor of the compound on TLC over silica gel; format: physicochemical
[3] = Antiproliferative activity against human BGC823 cells assessed as inhibition of cell proliferation at 10 to 100 uM; format: functional, BGC-823

Row | Structure (SMILES) | inhibition [1] | inhibition (BaF3) | inhibition (INH) (A549) [%] | inhibition (INH) (HepG2) [%] | inhibition (INH) (MCF7) [%] | Rf [2] | inhibition (INH) [3] [%]
1 | CC1=C(O)C(=O)C2=C(CCC2)[C@]12C(=O)N(C)c1ccccc12 | inactive | 15% | <10 | <10 | <10 | 0.67 | <10
2 | C[C@@H]1[C@@H](O)C(=O)C2=C(CCC2)[C@]12C(=O)N(C)c1ccccc12 | inactive | inactive | <10 | <10 | <10 | 0.8 | <10
